This note sets out measurements from ChEMBL document CHEMBL1201862, “PubChem BioAssay data set” (2004).

Experiment in all cases: growth of human tumour cells (NCI), 48 h
Test [1] deals with DLD-1.
In test [2] the test system is DMS-114.
In test [3] the test system is HOP-18.
Test [4] deals with LXFL 529.
In test [5] the test system is RXF 631.
Test [6] has as its system SNB-78.
Test [7] concerns XF498.
Test [8] concerns Hs-578T.
In test [9] the test system is BT-549.

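A five-concentration, 48-hour dose response in 96-well plates underlies each endpoint, interpolated linearly between surrounding concentrations. GI50 = concentration required for 50% inhibition of growth.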 Activity calls are given as the source filed them. No stated cut-off is given here; in the data, active = GI50 up to about 1.1 µM and inactive = higher.

Take `CSC(=S)N/N=C/c1nccc2ccccc12`: the GI50 in test [1] was 0.537 µM (active); in test [2], 0.627 µM (active); in test [3] it was 1.82 µM (inactive); in test [4], 0.488 µM (active); in [5] it was 4.69 µM (inactive); in [6], 3.18 µM (inactive). Besides, the GI50 in test [7] was 0.809 µM (active).
Regarding `CC(C)(C)c1cc(O)c2c(c1O)C(=O)CCC2`, the GI50 was 37.9 µM (inactive) in [1]; 20.3 µM (inactive) in [2]; 60.5 µM (inactive) in test [3]; 34.8 µM (inactive) in [4]; 57.7 µM (inactive) in test [5]; 32.7 µM (inactive) in [6]. For the same molecule, the GI50 in test [7] was 31.1 µM (inactive).
For `O=C(NN1C(=O)CS(=O)(=O)C1c1cccc(F)c1)c1ccncc1` (stereo not given), the GI50 in test [1] was > 100 µM (inactive); in test [2] it was > 100 µM (inactive); in [3], < 0.01 µM (active); in test [4], > 100 µM (inactive); in test [5] it was > 100 µM (inactive); in test [6], > 10 µM (inactive). In addition, the GI50 in [7] is 82.6 µM (inactive).
On to `Cc1ccc(Nc2nc(C)c(C(/C=C/c3ccc4c(c3)OCO4)=N/Nc3ccc([N+](=O)[O-])cc3[N+](=O)[O-])s2)c([N+](=O)[O-])c1`, for which the GI50 is 27.6 µM (inactive) in test [1]; 13.3 µM (inactive) in test [2]; 7.69 µM (inactive) in test [3]; 6.03 µM (inactive) in test [4]; 42.5 µM (inactive) in [5]; 50.7 µM (inactive) in [6]. Besides, in test [7], the GI50 was 22.1 µM (inactive).
As to `CCc1cccc(CC)c1NC(=S)NC(=O)c1ccc(Br)cc1`, the GI50 is 34.9 µM (inactive) in test [1]; 28.2 µM (inactive) in [2]; 49.9 µM (inactive) in test [3]; 3.76 µM (inactive) in test [8]; 43.1 µM (inactive) in [4]; > 100 µM (inactive) in [5]. The results for the GI50 in test [6] and in test [7] were 64.7 µM (inactive) and 26.3 µM (inactive), respectively.
On to `COc1cc2c(cc1O)C(C)Cc1cc3c(cc1N(C)CC2)OCO3` (stereo not given), for which the GI50 in test [1] was 4.16 µM (inactive); in test [2], 3.54 µM (inactive); in test [3], 10.5 µM (inactive); in test [4], 5.41 µM (inactive); in test [5], 18.7 µM (inactive); in [6], 5.12 µM (inactive). The GI50 in [7] is 7.19 µM (inactive).
For `CCC(=O)OC[n+]1ccc2c(C)c3[nH]c4ccc(OC)cc4c3c(C)c2c1`, the GI50 in test [1] was 0.0435 µM (active); in test [2], 0.104 µM (active); in test [3] it was < 0.01 µM (active); in [4] it was 0.0582 µM (active); in test [5], 0.0843 µM (active); in [6], 0.693 µM (active). The GI50 in test [7] was 1.22 µM (inactive).
Consider `COc1ccc(C(=O)OC2C=COC(C)C2OC(=O)c2ccc(OC)cc2)cc1` (stereo not given), for which the GI50 in [1] is 16.4 µM (inactive); in test [2], 17.5 µM (inactive); in test [3], 27.2 µM (inactive); in test [4], 14.5 µM (inactive); in test [5], 26.4 µM (inactive); in [6] it was 22.5 µM (inactive). In [7], the GI50 was > 45 µM (inactive).
Take `[O-]/[N+](=C\c1ccccc1)[C@H](COCc1ccccc1)c1ccccc1`: the GI50 in [1] is > 100 µM (inactive); in test [2], 54.1 µM (inactive); in test [3] it was 20.3 µM (inactive); in [4], > 100 µM (inactive); in [5], > 100 µM (inactive); in [6] it was 66.5 µM (inactive). For the same molecule, the GI50 in [7] was 27.8 µM (inactive).
Regarding `CCCCCCCCCCCCCCCCCCN(C)CC(COC)OP(=O)([O-])OCC[N+](C)(C)C` (stereo not given), the GI50 in test [9] is 2.53 µM (inactive); in test [1], 1.47 µM (inactive); in test [2], 2.84 µM (inactive); in [3] it was 1.85 µM (inactive); in test [8], 4.93 µM (inactive); in test [4], 2.21 µM (inactive). In addition, the GI50 in test [5] was 5.25 µM (inactive); in test [6] it was 3.56 µM (inactive); in test [7], 4.93 µM (inactive).
Take `CCCCCCCCCCCCCCCCCC(=O)NCC(COP(=O)([O-])OCC[N+](C)(C)C)OC` (stereo not given): the GI50 in test [1] was 2.59 µM (inactive); in [2], 10.6 µM (inactive); in [3], 3.78 µM (inactive); in test [4], 6.78 µM (inactive); in [5], 13.4 µM (inactive); in [6], 4.3 µM (inactive). Further, the GI50 in [7] is 2.71 µM (inactive).
